Results: patent publication US20230279132A1, “TREATMENT OF B CELL MALIGNANCIES” (NOVARTIS AG, priority 2020, published 2023)
Like-named read-outs stand apart in the source and are kept apart here.

Assays:
[1] = system: MCL; conditions: cited from earlier work; for response rates: relapsed MCL, targeted therapies
[2] = system: DLBCL cell line SUDHL4; experiment: in vivo DLBCL model: SUDHL4 implanted subcutaneously into SCID mice; conditions: 5 mg/kg or 50 mg/kg VAY736 intravenously weekly
Description: Vehicle and rituximab were used as controls.

[3] = system: SUDHL4 cells; experiment: in vitro ADCC assay (Calcein AM-labeled SUDHL4 cells) with PBMC, pNK or NK3.3 effector cells; type: cell-based; conditions: for improvement in VAY736-induced ADCC with lenalidomide: 72 hr lenalidomide treatment
Protocol: NK3.3 cells were collected, washed 1×, and incubated in starvation media with or without 3 uM lenalidomide. Cells were incubated for 48 hrs or 72 hrs, collected, spun down, and resuspended in assay buffer. 100 μl of NK3.3 cells at the designated E:T ratios were transferred to a 96 well plate with SUDHL4 cells and antibodies. The co-culture was incubated for 2 hrs.
(§1) Frozen PBMC were thawed, or fresh PBMCs were isolated. If T cells were depleted, PBMC were used for a positive depletion of CD3 using CD3 beads (Miltenyi #130-050-101). Cells were washed 1×, and incubated in unstimulated media (phenol red free/glutamax/hepes/anti-penicillin anti-streptomycin/FBS) with or without 3 μM, 1 μM or 10 μM Lenalidomide. Cells were incubated for 24 hrs or 72 hrs. The supernatant was taken and frozen for IL2 analysis. In one study, for the 72 hr culture, 100 pg/ml IL2 was added to the culture for the last 24 hrs. Primary NK cells were isolated the day of the co-culture setup. 100 μl of PBMC or pNK cells at the designated E:T ratios were transferred to the 96 well plate with the SUDHL4 cells and antibodies. The co-culture was incubated for 3 hrs or 4 hrs.
A total of 10e6 or 4e6 SUDHL4 cells were incubated with Calcein AM for 60 minutes. Cells were then washed 2× with 30 ml of media. Cells were counted, and resuspended to 0.15 e6/ml or 0.2 e6/ml, and in one study 40 ng/ml of IL2 was added. A total of 50 μl cells were then transferred to a 96 well plate. […] Effector cells were then added to the 96 well plate. The plate was then spun in a centrifuge without the brake at 200×g for 4 min, and the co-culture was incubated for 2 hrs, 3 hrs or 4 hrs. The plate was then spun without the brake at 1500 RPM for 4 min. 100 μl of the supernatant was moved to black 96 well plates (Corning, #3904) and fluorescence was recorded with a PerkinElmer Envision plate reader.

[4] = target: T1, BAFF-R (Homo sapiens, UniProt Q96RJ3); experiment: Phase Ib study CVAY736Y2102: tissue receptor occupancy; type: in vivo; conditions: VAY736 doses of 3 mg/kg or above, in combination with ibrutinib
T1 construct: from tissue

[5] = system: BAFF; experiment: Phase Ib study CVAY736Y2102: free BAFF; type: in vivo, human; conditions: VAY736 in combination with ibrutinib
[6] = system: mature B cell; experiment: repeat dose toxicity study in mice: healthy B-cell levels; type: in vivo, CD-1 mice
Protocol: CD-1 mice were administered 0 mg/kg or 100 mg/kg of ianalumab by intravenous administration weekly for 13 weeks, followed by an 11 week recovery period.

[7] = system: B cells; type: in vivo, cynomolgus monkeys
Protocol: (§2) A rising single i.v. dose range finding (DRF), toxicity and TK/PD study and three repeated dose toxicity studies were performed with ianalumab in cynomolgus monkeys. B-cell levels were evaluated in the studies.

[8] = system: B cells; experiment: three repeated dose toxicity studies; type: in vivo, cynomolgus monkeys
Protocol: as §2

[9] = system: DLBCL; conditions: cited from earlier work
[10] = system: IL2; experiment: IL2 production in PBMC treated with lenalidomide; type: cell-based; conditions: 72 hr lenalidomide, PBMC with and without CD3+ cells (FIG. 8)
Protocol: as §1

In the case of `C=CC(=O)N1CCC[C@@H](n2nc(-c3ccc(Oc4ccccc4)cc3)c3c(N)ncnc32)C1` [ibrutinib], the “treatment-related adverse effects compared to temsirolimus” value ([1]; Phase III study) is given as “fewer treatment-related adverse effects”.

In the case of “VAY736: non-fucosylated human IgG1 kappa anti-BAFFR antibody with enhanced ADCC; heavy chain SEQ ID NO: 9, light chain SEQ ID NO: 10”, the “tumor growth compared to the vehicle control (tumor volume measurements over time)” value [2] is reported as “significantly slowed tumor growth”, the “ADCC in the presence of VAY736” value ([3]; effector cells PBMC, pNK cells, NK3.3 cell line) is reported as “potent ADCC” and the “VAY736-dependent specific lysis of SUDHL4 cells, dose dependence” value ([3]; various effector cells) is reported as “dose-dependent”. For the same compound, the tissue receptor occupancy [4] was greater than 99%, the “free BAFF” value [5] was “accumulated to steady state with no dose relationship” and the “mature B cell depletion” value ([6]; 100 mg/kg intravenous weekly for 13 weeks) was 70-90%. For the same compound, the “B cell levels during the recovery period” value ([6]; 11 week recovery period after 100 mg/kg weekly for 13 weeks) was “recovered”, the tolerability ([7]; cynomolgus monkey, in vivo) was “well tolerated” and the “dose that induced depletion of B cells” value ([7]; single i.v. dose) was no less than 0.4 mg/kg. The B cell depletion [8] was “B cell depletion was observed at all dose levels”.

In the case of polatuzumab vedotin, the ORR ([9]; in combination with rituximab and bendamustine) is given as 70%.

For `CO[C@H]1C[C@@H]2CC[C@@H](C)[C@@](O)(O2)C(=O)C(=O)N2CCCC[C@H]2C(=O)O[C@H]([C@H](C)C[C@@H]2CC[C@@H](OC(=O)C(C)(CO)CO)[C@H](OC)C2)CC(=O)[C@H](C)/C=C(\C)[C@@H](O)[C@@H](OC)C(=O)[C@H](C)C[C@H](C)/C=C/C=C/C=C/1C` [temsirolimus], the response rates [1] is listed as “improved response rates”.

For `Nc1cccc2c1CN(C1CCC(=O)NC1=O)C2=O` (stereo not drawn) [lenalidomide], the “ADCC with lenalidomide pretreatment” value ([3]; NK3.3 effector cells, E:T 20:1 and 7:1, 72 hr and 48 hr pretreatment (FIGS. 5, 6)) was “Slight increases in ADCC”, the “VAY736-induced ADCC with addition of lenalidomide” value ([3]; NK3.3 effector cells, more prominent with 72 hr pretreatment at E:T 20:1 (FIG. 2A-2B)) was “Increases in VAY736-induced ADCC” and the “VAY736-induced ADCC with lenalidomide pretreatment” value ([3]; PBMC effector cells, 24 hrs pretreatment, E:T 2:1) was “only showed an enhancement at the highest concentration”. The “VAY736-induced ADCC with lenalidomide pretreatment” value ([3]; PBMC effector cells, 24 hrs pretreatment, E:T 10:1) was “enhanced VAY736-induced ADCC”, the “VAY736-induced ADCC with lenalidomide pretreatment” value ([3]; PBMC effector cells, 24 hrs pretreatment, E:T 20:1) was “only a slight enhancement” and the “improvement in VAY736-induced ADCC with lenalidomide” value ([3]; PBMC effector cells, E:T 2:1) was “evident”. The “improvement in VAY736-induced ADCC with lenalidomide” value ([3]; PBMC effector cells, E:T 6:1) was “less pronounced”, the “VAY736-induced ADCC with lenalidomide” value ([3]; PBMC effector cells, 72 hr, E:T 3:1, largely dose-independent, hampered with IL2 stimulation) was “increased VAY736-induced ADCC” and the “dependence of the ADCC enhancement by lenalidomide on CD3+ T cells” value ([3]; PBMC vs CD3+ depleted PBMC, 72 hr) was “dependent on the presence of CD3+ T cells”. The “VAY736-induced ADCC with lenalidomide pretreatment” value ([3]; pNK cells isolated from PBMC pretreated 24 hrs, more so with 10:1 and 20:1) was “enhanced VAY736-induced ADCC”, the “VAY736-induced ADCC with lenalidomide pretreatment” value ([3]; pNK cells, 72 hr Len pretreatment, E:T 1:1 and 1:3) was “enhanced VAY736-induced ADCC” and the “VAY736-dependent percent specific lysis of SUDHL4 cells on addition of lenalidomide” value ([3]; various effector cells and treatment conditions) was “enhanced”. The “IL2 production in PBMC” value [10] was “IL2 produced by lenalidomide treatment by T cells” and the ORR ([1]; heavily pre-treated population, Phase II study EMERGE) was 28%.

In the case of blinatumomab: bispecific antibody, the response rates ([9]; DLBCL) is listed as 35-50%.

For `CC(C)C[C@H](NC(=O)[C@H](Cc1ccccc1)NC(=O)c1cnccn1)B(O)O` [bortezomib], the response rates [1] is listed as “improved response rates”.

In the case of brentuximab vedotin, the ORR ([9]; CD30+ relapsed DLBCL) is listed as 44%.
